By pEC50 is commonly meant the negative decadic logarithm of the EC50, by convention in mol/L. One may read the inhibition as the share of the control response that was lost under treatment. Usually AUC(0-t) stands for the area under the concentration-time curve up to a stated or last time point. Read a low AUC(0-t) as less exposure. What is called pKd is the Kd on a negative log10 scale, so that one unit is a factor of ten. As a reminder, the AUC(0-inf) is the area under the concentration-time curve extrapolated to infinity. The low end stands for less exposure, the high end for more exposure. As a reminder, the Cmax is the highest concentration seen after dosing. Broadly, the Tmax is the time from dosing to the highest level. For orientation: bioavailability means dose-corrected exposure relative to a reference, in per cent. A high value points to much systemic uptake. Usually clearance stands for the rate of elimination divided by the concentration.

pEC50, pKd: −log10 of the molar value. Active and inactive are the calls of the source. The calls are words filed in the database; no cut-off is given here.

The record followed here is ChEMBL document CHEMBL5154759, “Discovery of Aryl Benzoyl Hydrazide Derivatives as Novel Potent Broad-Spectrum Inhibitors of Influenza A Virus RNA-Dependent RNA Polymerase (RdRp)” (J Med Chem, 2022).

Series [1] concerns Influenza A virus. The series can be described thus: microbe, parasite or virus in culture. The conditions noted are these: H5N1, MDCK, 48 h.
Series [2] concerns Influenza A virus. The conditions noted are these: mdck.
The test system of series [3] is Influenza A virus. In kind it is functional, organism-based. The conditions noted are these: H5N1, MDCK, time 12.0 hrs.
Series [4] has as its system Influenza A virus. In kind it is functional. The conditions noted are these: H5N1, MDCK, time 12 hrs.
A short description of series [5]: AUC(0 to t) in overnight fasted po dosed Sprague-Dawley rat measured at 0.25 to 24 hrs post dose by LC-MS/MS method. It counts as ADME, organism-based. Details: time 0.25-24 hrs, route po. The conditions noted are these: in vivo.
The nature of series [6]: Binding affinity to influenza A virus RNA-dependent RNA polymerase PB1 subunit expressed in human 293T cells assessed as dissociation constant by MST assay. The conditions noted are these: hek293t.
Series [7] relates to Influenza A virus. In kind it is functional, A/PR/8/34. The conditions noted are these: dose 10 mg/kg; route po; time 1 hrs.
Series [8] concerns Influenza A virus. In kind it is functional, organism-based. The conditions noted are these: H5N1, MDCK, dose 1.0 µM, time 48.0 hrs.
Series [9] is described as follows: AUC(0 to t) in overnight fasted iv dosed Sprague-Dawley rat measured at 0.083 to 24 hrs post dose by LC-MS/MS method. The conditions noted are these: in vivo. Details: time upper 24 hrs, time lower 0.083 hrs, route iv. In kind it is ADME, organism-based.
Series [10] in a line: Bioavailability in overnight fasted iv dosed Sprague-Dawley rat measured at 0.083 to 24 hrs post dose by LC-MS/MS method. In kind it is ADME, organism-based. The conditions noted are these: in vivo, time 0.083-24 hrs.
Series [11] in a line: AUC(0 to infinity) in overnight fasted iv dosed Sprague-Dawley rat measured at 0.083 to 24 hrs post dose by LC-MS/MS method. It counts as ADME, organism-based. Details: time 0.083-24 hrs, route iv. The conditions noted are these: in vivo.
For a further series, the system named is A549. The series can be described thus: Induction of ROS generation in human A549 cells at 50 ug/ml incubated for 30 mins by DCFH-DA dye based fluorescence microscopy. It counts as functional, cell-based. The conditions noted are these: dose 50.0 µg/ml.
The nature of series [12]: Cmax in overnight fasted po dosed Sprague-Dawley rat plasma measured at 0.25 to 24 hrs post dose by LC-MS/MS method. In kind it is ADME, organism-based. On the set-up: time upper 24 hrs, time lower 0.25 hrs, route po.
Series [13] has as its system Influenza A virus. In kind it is functional, organism-based. The conditions noted are these: H5N1, MDCK, dose 0.8 µM, time 12.0 hrs.
For series [14], the system named is Influenza A virus. In kind it is functional, organism-based. The conditions noted are these: H5N1, MDCK.
Series [15] relates to Influenza A virus. In kind it is functional, A/PR/8/34. The conditions noted are these: dose 20 mg/kg; route ig; time 1 hrs.
Series [16] relates to HEK293T. The series can be described thus: Inhibition of influenza A/WSN/H1N1 virus RNA-dependent RNA polymerase activity in human 293 T cells co-transfected with pPOLI-Fluc assessed as reduction in luciferase activity at 0.1 uM incubated for 48 hrs by luciferase reporter gene assay relative to control. In kind it is cell-based. Background: In a reporter assay the amount or activity of a reporter protein is the signal.

A short description of series [17]: Cmax in overnight fasted iv dosed Sprague-Dawley rat plasma measured at 0.083 to 24 hrs post dose by LC-MS/MS method. It counts as ADME, organism-based. On the set-up: time upper 24 hrs, time lower 0.083 hrs, route iv.
The subject of series [18] is HEK293T. The series can be described thus: Inhibition of influenza A/WSN/H1N1 virus RNA-dependent RNA polymerase activity in human 293 T cells co-transfected with pPOLI-Fluc assessed as reduction in luciferase activity at 0.01 uM incubated for 48 hrs by luciferase reporter gene assay relative to control. In kind it is cell-based.
The subject of series [19] is Influenza A virus. It counts as functional, organism-based. The conditions noted are these: H5N1, MDCK, dose 0.03-100 µM, time 12.0 hrs, DDE = dose-dependent effect.
A short description of series [20]: Elimination half life in overnight fasted Sprague-Dawley rat at 0.20 ml, iv measured at 0.083 to 24 hrs post dose by LC-MS/MS method. It counts as ADME, organism-based. The conditions noted are these: in vivo, 0.2 ml, time 0.083-24 hrs, read-out: beta t1/2 (converted).
Series [21] can be described thus: Acute toxicity in BALB/c mouse infected with influenza A virus A/PR/8/34 assessed as reduction in body weight at 2000 mg/kg, po administered 3 times per day. The conditions noted are these: in vivo. In kind it is organism-based.
Series [22] in a line: Tmax in overnight fasted iv dosed Sprague-Dawley rat plasma measured at 0.083 to 24 hrs post dose by LC-MS/MS method. It counts as ADME, organism-based. The conditions noted are these: time 0.083-24 hrs.
Series [23] concerns Influenza A virus. In kind it is functional, organism-based. The conditions noted are these: H5N1, A549, dose 0.018 µM, time 1.0 hrs.
The test system of series [24] is HEK293T. The series can be described thus: Inhibition of influenza A/WSN/H1N1 virus RNA-dependent RNA polymerase activity in human 293 T cells co-transfected with pPOLI-Fluc assessed as reduction in luciferase activity incubated for 48 hrs by luciferase reporter gene assay. In kind it is cell-based.
The nature of series [25]: Tmax in overnight fasted po dosed Sprague-Dawley rat plasma measured at 0.25 to 24 hrs post dose by LC-MS/MS method. It counts as ADME, organism-based. The conditions noted are these: time 0.25-24 hrs.
Series [26] can be described thus: Oral bioavailability in overnight fasted Sprague-Dawley rat measured at 0.25 to 24 hrs post dose by LC-MS/MS method. In kind it is ADME, organism-based. The conditions noted are these: in vivo, time 0.25-24 hrs.
Series [27] relates to HEK293T. The series can be described thus: Inhibition of influenza A/WSN/H1N1 virus RNA-dependent RNA polymerase activity in human 293 T cells co-transfected with pPOLI-Fluc assessed as reduction of Fluc/Rluc ratio incubated for 48 hrs. In kind it is cell-based. The conditions noted are these: DDE = dose-dependent effect.
The nature of series [28]: Clearance in overnight fasted iv dosed Sprague-Dawley rat measured at 0.083 to 24 hrs post dose by LC-MS/MS method. The conditions noted are these: in vivo, time 0.083-24 hrs. It counts as ADME, organism-based.
In series [29] the test system is Influenza A virus. In kind it is functional, organism-based. The conditions noted are these: H5N1, MDCK, DDE = dose-dependent effect.
Series [30] can be described thus: Elimination half life in overnight fasted po dosed Sprague-Dawley rat measured at 0.25 to 24 hrs post dose by LC-MS/MS method. In kind it is ADME, organism-based. The conditions noted are these: in vivo, time 0.25-24 hrs, read-out: beta t1/2 (converted).
Series [31] in a line: AUC(0 to infinity) in overnight fasted po dosed Sprague-Dawley rat measured at 0.25 to 24 hrs post dose by LC-MS/MS method. In kind it is ADME, organism-based. On the set-up: time upper 24 hrs, time lower 0.25 hrs, route po. The conditions noted are these: in vivo.
Series [32] deals with Influenza A virus. The series can be described thus: Antiviral activity against influenza A virus (A/Puerto Rico/8/34) H1N1. In kind it is functional, organism-based. The conditions noted are these: (A/Puerto Rico/8/34) H1N1, MDCK.
Series [33] deals with Influenza A virus. The series can be described thus: Antiviral activity against influenza A virus (A/Vietnam/1203/2004) H5N1. The conditions noted are these: (A/Vietnam/1203/2004) H5N1, MDCK. In kind it is functional, organism-based.

`O=C(NNc1c(Cl)cccc1Cl)c1cccs1` gave a pEC50 in the series on Influenza A virus [1] below 4.00.
Consider `CC(=O)N[C@H]1[C@H]([C@H](O)[C@H](O)CO)OC(C(=O)O)=C[C@@H]1NC(=N)N` [ZANAMIVIR], for which the negative-log EC50 (pEC50) in the series on Influenza A virus [1] was 7.12; in the series on Influenza A virus [2] it was 6.80.
In turn, `CCOc1ccc(C(=O)NNc2c(F)cccc2F)cc1` had a pEC50 with Influenza A virus [1] of 4.51.
`O=C(NNc1c(Br)cccc1Br)c1ccc2ccccc2c1` showed a pEC50 with Influenza A virus [1] of 5.92.
`NC(=O)c1nc(F)cnc1O`: the result in the series with Influenza A virus [3] was Active.
`CCOc1ccc(C(=O)NNc2c(C)cccc2C)cc1`: the negative-log EC50 (pEC50) in the series with Influenza A virus [1] is 6.34.
In turn, `COc1ccc(C(=O)NNc2c(F)cccc2F)cc1` had a negative-log EC50 (pEC50) with Influenza A virus [1] below 4.00.
`O=C(NNc1c(Br)cccc1Br)c1ccc(OCC(F)(F)F)cc1` had a pEC50 in the series on Influenza A virus [1] of 7.47.
With `CN(C)c1ccc(C(=O)NNc2c(F)cccc2F)cc1`, the pEC50 in the series with Influenza A virus [1] was below 4.00.
Still for that read-out and setting: the result for `CCOc1ccc(C(=O)NNc2c(C)cccc2Cl)cc1` reads 7.00; that for `COC(=O)c1ccc(C(=O)NNc2c(Br)cccc2Br)cc1`, 6.48.
For the molecule `O=C(NNc1c(Cl)cccc1Cl)c1ccccc1`, in the series on Influenza A virus [1], the negative logarithm of the EC50 (pEC50) was below 4.00.
On the same count and under the same terms, under `CN(C)c1ccc(C(=O)NNc2c(Br)cc(Br)cc2Br)cc1` stands 6.64.
The same measure, in the same setting: the result for `CCOc1ccc(C(=O)NNc2ccc(Br)cc2)cc1` reads below 4.00.
In turn, `O=C(NNc1c(Br)cccc1Br)c1ccc(N2CCOCC2)cc1` gave an inhibition at 0.03 µM in the series on Influenza A virus [4] above 50%. The same molecule gave a negative logarithm of the EC50 (pEC50) with Influenza A virus [1] of 7.74. Besides, the exposure AUC(0-t) in series [5] was determined as 1590 ng·h/mL; in series [9], 1480 ng·h/mL. Also, in series [6], the pKd was 6.45. Moreover, the outcome with Influenza A virus [3], in the series on Influenza A virus [8], in the series with A549, in the series on Influenza A virus [13], with Influenza A virus [14] and with Influenza A virus [23] was Active. For the same molecule, the outcome in the series with HEK293T [24] was Active. Moreover, the Activity in the series on Influenza A virus [7] is 100%; with Influenza A virus [15], 70%; with Influenza A virus [19], “Dde”; in series [21], “Toxic”; in the series on HEK293T [27], “Dde”; in the series on Influenza A virus [29] it was “Dde”. The molecule further yielded a F in [10] of 100%. The area under the curve AUC(0-inf) in series [11] came out at 1500 ng·h/mL; in series [31] it was 1710 ng·h/mL. The highest concentration (Cmax) is 635 ng/mL in [12] and 2520 ng/mL in [17]. For the same molecule, the inhibition was 91% in the series on HEK293T [16] and 60% in the series on HEK293T [18]. In addition, the half-life was 90 min in series [20] and 109 min in series [30]. In addition, the results for the Tmax in series [22] and in series [25] were 4.8 min and 25.2 min, respectively. The molecule also had a bioavailability in series [26] of 32.2%. In addition, in series [28], the clearance was 33.8 mL/min/kg.
In turn, `O=C(NNc1c(Br)cccc1Br)c1ccc(F)cc1` had a pEC50 in the series on Influenza A virus [1] of 4.06.
In the series with Influenza A virus [1], `O=C(NNc1c(Br)cccc1Br)c1ccc(B(O)O)cc1` showed a negative-log EC50 (pEC50) below 4.00.
Molecule `O=C(NNc1c(Br)cccc1Br)c1ccc2ncccc2c1` had a pEC50 with Influenza A virus [1] of 4.62.
`CCCc1ccc(C(=O)NNc2c(Cl)cccc2Cl)cc1` had a negative logarithm of the EC50 (pEC50) in the series on Influenza A virus [1] of 6.72.
Molecule `CN(C)c1ccc(C(=O)NNc2c(Br)cccc2Br)cc1` had a pEC50 in the series with Influenza A virus [1] of 7.51.
As to `O=C(O)[C@H]1C2CCC(CC2)[C@@H]1Nc1nc(-c2c[nH]c3ncc(F)cc23)ncc1F` [PIMODIVIR], the pEC50 is 9.52 with Influenza A virus [32] and 10.00 in the series on Influenza A virus [33].
As to `CCOc1ccc(C(=O)NNc2c(Br)cccc2Br)cc1`, the negative logarithm of the EC50 (pEC50) in the series with Influenza A virus [1] is 7.47.
Molecule `CN(C)c1ccc(C(=O)NNc2c(Cl)cccc2Cl)cc1` had a negative-log EC50 (pEC50) in the series on Influenza A virus [1] of 7.34.
On to `N#Cc1ccc(C(=O)NNc2c(Br)cccc2Br)cc1`, for which the pEC50 in the series on Influenza A virus [1] was below 4.00.
`O=C(NNc1c(Br)cccc1Br)c1ccc(Br)cc1` showed a negative-log EC50 (pEC50) in the series with Influenza A virus [1] of 4.66.
`CCOc1ccc(C(=O)NNc2cccc(Br)c2)cc1` had a pEC50 with Influenza A virus [1] below 4.00.
